Measurements as given in patent US12435061B2 (priority 2020, dated 2025).
Read-outs that look alike come from different tables or passages of the source.

Molecular target: hTRPV3 (Homo sapiens (Human), UniProt Q8NET8)
Assay: Whole-cell patch clamp, hTRPV3 Phase 1 / Phase 2 currents
Assay type: cell-based
Description: Whole-cell patch clamp experiments permit the detection of currents through the TRPV3 channel in the cell line described above. A glass electrode is brought into contact with a single cell and the membrane is then ruptured, permitting control of the voltage of the cell membrane and measurement of currents flowing across the membrane using the amplifier attached to the electrode. A perfusion system permits control of the extracellular solution, including the addition of blockers and activators of the current. The current can be activated by heating this solution to 28° C. or warmer or by addition of 20 μM 2-APB to the solution.
TRPV3 cells were induced 20-48 hours, removed from growth plates, and replated at low density (to attain good single-cell physical separation) on glass coverslips for measurement. In some cases, cells were grown in low density overnight on glass coverslips. Patch clamp recordings were made in the whole-cell mode with a holding potential of −40 mV. Every 5 seconds, a voltage ramp was applied from −120 to +100 mV, 400 ms in duration. Currents elicited were quantified at −80 mV and +80 mV. […] External solution was Ringer's solution described above.
P1 refers to the Phase 1 current for human (h) TRPV3, and P2 refers to the Phase 2 current for human (h) TRPV3.
In Tables 3 and 4, Phase 1 refers to Phase 1 current for human (h) TRPV3 or rat (r) TRPV3, and Phase 2 refers to Phase 2 current for human (h) TRPV3 or rat (r) TRPV3. The hTRPV3 and rTRPV3 assays were performed as described herein. hERG refers to the inhibition the human ERG (hERG) channel. NaV1.5, refers to the pore forming aL-subunit of the voltage-dependent cardiac Na(+) channel and is an integral membrane protein involved in the initiation and conduction of action potentials. hTRPV3 HAMA IC50 refers to the IC50 of TRPV3 cells stably expressed in TRex-293 cells. Solubility Ringer refers to the compounds' solubility in Ringer's solution. LM T1/2 refers to liver microsome half-lives in either rat or human liver microsomes. FLIPR IC50 refers to the IC50 of the test compounds against recombinant hTRPV3 cells.

[1] = Phase 1 current, inward, whole-cell patch clamp, read-out: hTRPV3 Patch P1 Inwd
[2] = Phase 1 current, read-out: hTRPV3 (nM) (Phase 1)
[3] = Phase 2 current, inward, whole-cell patch clamp, read-out: hTRPV3 Patch P2 Inwd
[4] = Phase 2 current, read-out: hTRPV3 (nM) (Phase 2)

hTRPV3, sequence (Q8NET8 whole entry): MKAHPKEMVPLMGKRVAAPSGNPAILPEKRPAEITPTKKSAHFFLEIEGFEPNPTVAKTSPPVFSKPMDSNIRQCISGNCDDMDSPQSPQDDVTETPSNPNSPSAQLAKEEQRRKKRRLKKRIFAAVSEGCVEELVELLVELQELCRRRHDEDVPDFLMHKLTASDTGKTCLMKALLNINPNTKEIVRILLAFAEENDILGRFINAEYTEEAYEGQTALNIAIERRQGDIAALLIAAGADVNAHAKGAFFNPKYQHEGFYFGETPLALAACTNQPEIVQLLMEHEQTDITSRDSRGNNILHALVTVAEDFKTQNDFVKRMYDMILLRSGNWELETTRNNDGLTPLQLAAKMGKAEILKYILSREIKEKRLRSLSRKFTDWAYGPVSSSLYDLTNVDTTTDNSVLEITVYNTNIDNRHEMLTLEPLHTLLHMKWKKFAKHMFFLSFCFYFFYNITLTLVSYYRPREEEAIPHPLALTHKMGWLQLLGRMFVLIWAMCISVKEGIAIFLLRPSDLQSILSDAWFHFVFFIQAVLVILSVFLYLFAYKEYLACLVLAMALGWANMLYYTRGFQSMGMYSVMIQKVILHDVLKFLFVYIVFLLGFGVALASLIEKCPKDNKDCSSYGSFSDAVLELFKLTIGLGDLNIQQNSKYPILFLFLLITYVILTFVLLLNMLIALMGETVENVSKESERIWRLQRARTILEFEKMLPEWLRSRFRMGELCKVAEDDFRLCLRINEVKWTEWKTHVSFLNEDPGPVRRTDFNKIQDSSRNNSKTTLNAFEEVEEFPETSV

| SMILES | IC50 [1] | IC50 [2] | IC50 [3] | IC50 [4] |
| --- | --- | --- | --- | --- |
| Cc1ccc(O[C@H]2CCN(c3ccc(-c4ncccc4C)cc3CO)C2)nc1 [Compound 1-259, (S)-(5-(3-methylpyridin-2-yl)-2-(3-(5-methylpyridin-2-yloxy)pyrrolidin-1-yl)phenyl) methanol] | > 1000 nM | 3050 nM | > 1000 nM | 2260 nM |
| O=C(O)c1cc(-c2ccccc2)ccc1N1CC[C@H](Oc2ccc(C(F)(F)F)cn2)C1 [Compound 1-165, (S)-4-(3-(5-(trifluoromethyl)pyridin-2-yloxy)pyrrolidin-1-yl)biphenyl-3-carboxylic acid] | > 1000 nM | > 3200 nM |  |  |
| OCc1csc(-c2cccc(N3CC[C@H](Oc4ccc(C(F)(F)F)cn4)C3)c2)n1 [Compound 1-177] | > 1000 nM |  |  |  |
| O=C(c1cccc(Cl)c1)c1ccc(N2CC[C@H](Nc3ccc(F)cn3)C2)c(CCO)c1 [Compound 1-393, (S)-(3-chlorophenyl)(4-(3-(5-fluoropyridin-2-ylamino)pyrrolidin-1-yl)-3-(2-hydroxyethyl)phenyl)methanone] | > 1000 nM | ~2950 nM | > 1000 nM | > 3200 nM |
| OCc1cc(Oc2ccccc2F)ccc1N1CC[C@H](Oc2ccccn2)C1 [Compound 1-333] | 100 to 1000 nM | 207 nM | 100 to 1000 nM | 111 nM |
| N#Cc1ccccc1-c1ccc(N2CC[C@H](Oc3ncccc3F)C2)c(CO)n1 [Compound 1-217, (S)-2-(5-(3-(3-fluoropyridin-2-yloxy)pyrrolidin-1-yl)-6-(hydroxymethyl)pyridin-2-yl)benzonitrile] | > 1000 nM | 3900 nM |  |  |
| NC(=O)c1cc(-c2ccccc2)ccc1N1CC[C@@H](Oc2ccc3cc(Cl)ccc3n2)C1 [Compound 1-86, (R)-4-(3-(6-chloroquinolin-2-yloxy)pyrrolidin-1-yl)biphenyl-3-carboxamide] |  |  | > 1000 nM | > 3200 nM |
| OCc1cc(C(O)c2ccccc2Cl)ccc1N1CC[C@H](Oc2ccccn2)C1 (stereo partly drawn) [Compound 1-338, (2-chlorophenyl)(3-(hydroxymethyl)-4-((S)-3-(pyridin-2-yloxy)pyrrolidin-1-yl)phenyl)methanol] | 100 to 1000 nM | 196 nM |  |  |
| CCc1ccccc1C(=O)c1ccc(N2CC[C@H](Nc3ncccc3Cl)C2)c(CCO)c1 [Compound 1-387, (S)-(4-(3-(3-chloropyridin-2-ylamino)pyrrolidin-1-yl)-3-(2-hydroxyethyl)phenyl)(2-ethylphenyl)methanone] | > 1000 nM | 1630 nM |  |  |
| Cc1ccccc1-c1ccc(N2CC[C@H](Nc3ccc(C(F)(F)F)cn3)C2)c(CO)n1 [Compound 1-379, (S)-(6-o-tolyl-3-(3-(5-(trifluoromethyl)pyridin-2-ylamino)pyrrolidin-1-yl)pyridin-2-yl)methanol] | > 1000 nM | > 3200 nM | > 1000 nM | > 3200 nM |
| COc1ccccc1Oc1ccc(N2CC[C@H](Oc3ccc(F)cn3)C2)c(CO)c1 [Compound 1-336, (S)-(2-(3-(5-fluoropyridin-2-yloxy)pyrrolidin-1-yl)-5-(2-methoxyphenoxy)phenyl)methanol] | 100 to 1000 nM | 329 nM | 100 to 1000 nM | 384 nM |
| Cc1ccc(O[C@H]2CCN(c3ccc(-c4ccccc4C#N)nc3CO)C2)nc1 [Compound 1-190, (S)-2-(6-(hydroxymethyl)-5-(3-(5-methylpyridin-2-yloxy)pyrrolidin-1-yl)pyridin-2-yl)benzonitrile] | > 1000 nM | > 3200 nM | > 1000 nM | > 3200 nM |
| O=C(c1ccc(N2CC[C@H](Oc3ncccc3Cl)C2)c(CO)c1)c1ccccc1Cl [Compound 1-263, (S)-(2-chlorophenyl)(4-(3-(3-chloropyridin-2-yloxy)pyrrolidin-1-yl)-3-(hydroxymethyl)phenyl)methanone] | 100 to 1000 nM | 444 nM |  |  |
